Data taken from patent US20090069363A1, “Therapeutic Agent for Constipation” (SHIONOGI & CO. LTD. A LEGAL ENTITY OF JAPAN, priority 2004, published 2009).

What was measured:
[1] = tested on: morphine-induced gastrointestinal transit inhibition; test: Influence on morphine-induced inhibitory action against transport competence of gastrointestinal tract (carbon powder transfer rate); format: in vivo; details: mouse, 15 min before morphine 3 mg/kg s.c.
Protocol: After weighing each test compound, 0.5% methylcellulose (methylcellulose: Wako Pure Chemicals, water for injection: Otsuka Pharmaceutical Factory) was added, and the obtained mixture was well stirred to prepare solutions containing the test compound at final concentrations of 3 mg/mL, 1 mg/mL and 0.3 mg/mL, respectively.
After weighing each test compound, 5% xylitol (Kylit injection (registered trademark), Otsuka Pharmaceutical Factory) was added and the mixture was well stirred to prepare solutions containing the test compound at a final concentration of 1 mg/mL. The solutions having concentrations of 0.3 mg/mL and 0.1 mg/mL, respectively, were prepared by diluting the solution having the concentration of 1 mg/mL.
Preparation Method: After weighing, physiological saline was added and the mixture was well stirred to prepare a solution having a concentration of 0.3 mg/mL.
• Crj:CD-1(ICR) mouse (SPF, male, 5-week old, body weight: 25.6-32.0 g (oral administration), 26.3-33.0 g (subcutaneous administration), Charles River Laboratories Japan)
• Control Group: 8 animals; Solvent-administered Group: 8 animals; Compound 1: 3, 10 and 30 mg/kg Groups: each 8 animals; Compound 2: 3, 10 and 30. mg/kg Groups: each 8 animals; Compound 3: 3, 10 and 30 mg/kg Groups: each 8 animals
• Control Group: 8 animals, Solvent-administered Group: 8 animals; Compound 1: 3, 10 and 30 mg/kg Groups: each 8 animals; Compound 2: 3, 10 and 30 mg/kg Groups: each 8 animals; Compound 3: 3, 10 and 30 mg/kg Groups: each 8 animals
• Administration volume: 10 mL/kg • Administration Method: Oral administration was carried out using a disposable syringe and an oral feeding tube.
Subcutaneous administration was carried out using a disposable syringe and a disposable injection needle. • Administration Frequency: single
Mice fasted overnight from the evening on one day before the test were used. Each test compound was administered, and 15 minutes later, morphine (3 mg/kg) was subcutaneously administered. 30 minutes after the administration of morphine, carbon powder (a suspension containing 5% of carbon powder suspended in 10% gum Arabic) was orally administered to each mouse in an amount of 0.1 mL, and the transfer rate (the distance which the carbon powder reached/the distance between the pylorus to cecum opening×100) was measured at 30 minutes after the administration of carbon powder. To the solvent-administered group, a solvent (methylcellulose or xylitol) was administered in place of the test substance solution. To the control group, none of the test substance, morphine and the solvent was administered and the transfer rate of the carbon powder was measured.

[2] = tested on: morphine-induced small intestine transit inhibition; test: Influence on morphine-induced small intestine transit inhibition (Evans blue test meal); format: in vivo; details: rat
Protocol: Using aqueous 0.5 w/v % Evans blue solution, 2.5 w/v % carboxymethylcellulose salt solution was prepared and used as the test meal.
Male Wistar rats (Crj. Wistar, Charles River Laboratories Japan, 6 to 7-week old) were used. The rats were fasted from not less than 20 hours before the beginning of the test, and water was given ad libitum.
The compound (I-1) synthesized in Example 1 was dissolved in a solvent (DMAA/Solutol/5% meglumine=15/15/70) • DMAA: N,N-dimethylacetamide (Kanto Chemical) • Solutol: Solutol (registered trademark) HS15 (BASF) • Meglumine: D(−)-N-methylglucamin (Merck)
Morphine hydrochloric acid salt (Dainippon Pharma) was dissolved in normal saline.
All of the test substance, solvent and morphine were administered in avolume of 2 mL/kg.
Each test substance in an amount of 0.03, 0.1, 0.3, 1 or 3 mg/kg (Test Substance—administered Groups) or the above-described solvent (Solvent-administered Group) was subcutaneously administered, and 75 minutes later, 3 mg/kg of morphine was subcutaneously administered to all groups. […]
The test meal in an amount of 2 mL/rat was orally administered at 30 minutes after the administration of morphine. […] The distance between the cardia and the ileocecum (full length of small intestine), and the distance up to the tip of the pigment (moving distance of the pigment) were measured. […]

[3] = test substance 1 mg/kg subcutaneous
[4] = test substance 3 mg/kg subcutaneous
[5] = test substance 10 mg/kg subcutaneous

In the case of `Cn1c2c(c3ccccc31)C[C@@]1(O)[C@H]3Cc4ccc(O)c5c4[C@@]1(CCN3CC1CC1)[C@H]2O5` [Compound 1], the “Transfer Rate of Carbon Powder (%)” value [1, 3] was 41 ± 2 %, the “Transfer Rate of Carbon Powder (%)” value ([1]; test substance 3 mg/kg oral) was 38 ± 2 % and the “Transfer Rate of Carbon Powder (%)” value [1, 4] was 43 ± 3 %. The “Transfer Rate of Carbon Powder (%)” value ([1]; test substance 10 mg/kg oral) was 35 ± 2 %, the “Transfer Rate of Carbon Powder (%)” value [1, 5] was 46 ± 3 % and the “Transfer Rate of Carbon Powder (%)” value ([1]; test substance 30 mg/kg oral) was 40 ± 2 %.
For `CCOC(=O)c1ccc2c3c([nH]c2c1)[C@@H]1Oc2c(O)ccc4c2[C@@]12CCN(CC1CC1)[C@H](C4)[C@]2(O)C3` [Compound 2], the “Transfer Rate of Carbon Powder (%)” value [1, 3] was 35 ± 3%, the “Transfer Rate of Carbon Powder (%)” value ([1]; test substance 3 mg/kg oral) was 43 ± 2 % and the “Transfer Rate of Carbon Powder (%)” value [1, 4] was 53 ± 3 %. For the same compound, the “Transfer Rate of Carbon Powder (%)” value ([1]; test substance 10 mg/kg oral) was 38 ± 2 %, the “Transfer Rate of Carbon Powder (%)” value [1, 5] was 55 ± 2 % and the “Transfer Rate of Carbon Powder (%)” value ([1]; test substance 30 mg/kg oral) was 52 ± 3 %.
In the case of `Cc1ccc(/C=C2\C[C@@]3(O)[C@H]4Cc5ccc(O)c6c5[C@@]3(CCN4CC3CC3)[C@@H](O6)C2=O)cc1` [Compound 3], the “Transfer Rate of Carbon Powder (%)” value [1, 3] was 32 ± 2%, the “Transfer Rate of Carbon Powder (%)” value [1, 4] was 43 ± 1 % and the “Transfer Rate of Carbon Powder (%)” value [1, 5] was 53 ± 3 %.
`O=C(O)c1ccc2c3c([nH]c2c1)[C@@H]1Oc2c(O)ccc4c2[C@@]12CCN(CC1CC1)[C@H](C4)[C@]2(O)C3` [Compound I-1, 17-cyclopropylmethyl-6,7-didehydro-4,5α-epoxy-3,14β-dihydroxy-6′-carboxy-6,7-2′,3′-indolomorphinan] was tested, and the “ED50 against morphine-induced small intestine transit inhibition” value ([2]; test substance s.c. 75 min before morphine 3 mg/kg s.c., calculated from % MPE) was 0.29 mg/kg and the “antagonistic action against morphine-induced small intestine transit inhibition” value ([2]; test substance s.c., morphine 3 mg/kg s.c.) was “exhibited antagonistic action”.
